This assay deals with GM1 production in Jurkat cells. Kind of assay: cells. It counts as cell-based.

What is called IC50 is the point on the concentration scale where inhibition reaches its midpoint.

Like-named read-outs stand apart in the source and are kept apart here.

Consider `COc1ccc(Cl)c(-c2ccc3c(c2)CC(C)(C)C3NC(=O)O[C@@H]2CN3CCC2CC3)c1` (stereo partly drawn) [Example 121, (S)-quinuclidin-3-yl (5-(2-chloro-5-methoxyphenyl)-2,2-dimethyl-2,3-dihydro-1H-inden-1-yl)carbamate], for which the IC50 (Homo sapiens, Jurkat, 72 h) worked out at 4.7 nM.

`COc1ccc(-c2ccc3c(c2)CC(C)(C)C3NC(=O)O[C@@H]2CN3CCC2CC3)cc1Cl` (stereo partly drawn) [Example 122, (S)-quinuclidin-3-yl (5-(3-chloro-4-methoxyphenyl)-2,2-dimethyl-2,3-dihydro-1H-inden-1-yl)carbamate] registered an IC50 (Homo sapiens, Jurkat, 72 h) of 50.8 nM. `COc1ccc(-c2ccc3c(c2)CC(C)(C)C3NC(=O)O[C@@H]2CN3CCC2CC3)c(Cl)c1` (stereo partly drawn) [Example 123, (S)-quinuclidin-3-yl (5-(2-chloro-4-methoxyphenyl)-2,2-dimethyl-2,3-dihydro-1H-inden-1-yl)carbamate] returned an IC50 (Homo sapiens, Jurkat, 72 h) of 9.3 nM. Under “Homo sapiens, Jurkat, 72 h”, `COc1cccc(-c2ccc3c(c2)CC(C)(C)C3NC(=O)O[C@@H]2CN3CCC2CC3)c1Cl` (stereo partly drawn) [Example 124, (S)-quinuclidin-3-yl (5-(2-chloro-3-methoxyphenyl)-2,2-dimethyl-2,3-dihydro-1H-inden-1-yl)carbamate] displayed an IC50 of 22.3 nM. As to `COc1cc(-c2ccc3c(c2)CC(C)(C)C3NC(=O)O[C@@H]2CN3CCC2CC3)ccc1Cl` (stereo partly drawn) [Example 125, (S)-quinuclidin-3-yl (5-(4-chloro-3-methoxyphenyl)-2,2-dimethyl-2,3-dihydro-1H-inden-1-yl)carbamate], half-maximal inhibition (Homo sapiens, Jurkat, 72 h) (IC50) was put at 9.5 nM.

Molecule `COc1ccc(-c2ccc3c(c2)CC(C)(C)C3NC(=O)O[C@@H]2CN3CCC2CC3)c(Cl)c1Cl` (stereo partly drawn) [Example 126, (S)-quinuclidin-3-yl (5-(2,3-dichloro-4-methoxyphenyl)-2,2-dimethyl-2,3-dihydro-1H-inden-1-yl)carbamate] yielded an IC50 (Homo sapiens, Jurkat, 72 h) of 50.5 nM. Under “Homo sapiens, Jurkat, 72 h”, `CC(C)Oc1ccc(-c2ccc3c(c2)CC(C)(C)C3NC(=O)O[C@@H]2CN3CCC2CC3)cc1Cl` (stereo partly drawn) [Example 127, (S)-quinuclidin-3-yl (5-(3-chloro-4-isopropoxyphenyl)-2,2-dimethyl-2,3-dihydro-1H-inden-1-yl)carbamate] registered an IC50 of 18.2 nM.

With `COc1ccc(-c2ccc3c(c2)CC(C)(C)C3NC(=O)O[C@@H]2CN3CCC2CC3)c(F)c1` (stereo partly drawn) [Example 128, (S)-quinuclidin-3-yl (5-(2-fluoro-4-methoxyphenyl)-2,2-dimethyl-2,3-dihydro-1H-inden-1-yl)carbamate], half-maximal inhibition (Homo sapiens, Jurkat, 72 h) (IC50) required 18.4 nM. In turn, `CN(C)c1cc(-c2ccc3c(c2)CC(C)(C)C3NC(=O)O[C@@H]2CN3CCC2CC3)ccc1F` (stereo partly drawn) [Example 129, (S)-quinuclidin-3-yl (5-(3-(dimethylamino)-4-fluorophenyl)-2,2-dimethyl-2,3-dihydro-1H-inden-1-yl)carbamate] displayed an IC50 (Homo sapiens, Jurkat, 72 h) of 36.8 nM.

In the case of `CC1(C)Cc2cc(-c3ccc4c(c3)CCCO4)ccc2C1NC(=O)O[C@@H]1CN2CCC1CC2` (stereo partly drawn) [Example 130, (S)-quinuclidin-3-yl (5-(chroman-6-yl)-2,2-dimethyl-2,3-dihydro-1H-inden-1-yl)carbamate], the midpoint of inhibition (Homo sapiens, Jurkat, 72 h), the IC50, lay at 10 nM. For the molecule `CC1(C)Cc2cc(-c3ccc(C4CC4)cc3)ccc2C1NC(=O)O[C@@H]1CN2CCC1CC2` (stereo partly drawn) [Example 131, (S)-quinuclidin-3-yl (5-(4-cyclopropylphenyl)-2,2-dimethyl-2,3-dihydro-1H-inden-1-yl)carbamate], the IC50 (Homo sapiens, Jurkat, 72 h) amounted to 10.6 nM. Turning to `CN(C)c1ccc(-c2ccc3c(c2)CC(C)(C)C3NC(=O)O[C@@H]2CN3CCC2CC3)cc1` (stereo partly drawn) [Example 132, (S)-quinuclidin-3-yl (5-(4-(dimethylamino)phenyl)-2,2-dimethyl-2,3-dihydro-1H-inden-1-yl)carbamate], the IC50 (Homo sapiens, Jurkat, 72 h) is 29.2 nM. Regarding `CCOc1ccc(-c2ccc3c(c2)CC(C)(C)C3NC(=O)O[C@@H]2CN3CCC2CC3)cc1F` (stereo partly drawn) [Example 133, (S)-quinuclidin-3-yl (5-(4-ethoxy-3-fluorophenyl)-2,2-dimethyl-2,3-dihydro-1H-inden-1-yl)carbamate], 22.6 nM corresponded to half-maximal inhibition (Homo sapiens, Jurkat, 72 h) (IC50). For the setting “Homo sapiens, Jurkat, 72 h”, `COc1ccc(-c2ccc3c(c2)CC(C)(C)C3NC(=O)O[C@@H]2CN3CCC2CC3)cc1C(F)(F)F` (stereo partly drawn) [Example 134, (S)-quinuclidin-3-yl (5-(4-methoxy-3-(trifluoromethyl)phenyl)-2,2-dimethyl-2,3-dihydro-1H-inden-1-yl)carbamate] showed an IC50 of 43.2 nM. `CCCOc1ccc(-c2ccc3c(c2)CC(C)(C)C3NC(=O)O[C@@H]2CN3CCC2CC3)cc1` (stereo partly drawn) [Example 135, (S)-quinuclidin-3-yl (2,2-dimethyl-5-(4-propoxyphenyl)-2,3-dihydro-1H-inden-1-yl)carbamate] displayed an IC50 (Homo sapiens, Jurkat, 72 h) of 8.1 nM.

In turn, `CC(C)COc1ccc(-c2ccc3c(c2)CC(C)(C)C3NC(=O)O[C@@H]2CN3CCC2CC3)cc1` (stereo partly drawn) [Example 136, (S)-quinuclidin-3-yl (5-(4-isobutoxyphenyl)-2,2-dimethyl-2,3-dihydro-1H-inden-1-yl)carbamate] showed an IC50 (Homo sapiens, Jurkat, 72 h) of 1.7 nM. As to `CC1(C)Cc2cc(-c3ccsc3)ccc2C1NC(=O)O[C@@H]1CN2CCC1CC2` (stereo partly drawn) [Example 137, (S)-quinuclidin-3-yl (2,2-dimethyl-5-(thiophen-3-yl)-2,3-dihydro-1H-inden-1-yl)carbamate], where the note is “Homo sapiens, Jurkat, 72 h”, the IC50 was 12.1 nM.

The molecule `Cc1cscc1-c1ccc2c(c1)CC(C)(C)C2NC(=O)O[C@@H]1CN2CCC1CC2` (stereo partly drawn) [Example 138, (S)-quinuclidin-3-yl (2,2-dimethyl-5-(4-methylthiophen-3-yl)-2,3-dihydro-1H-inden-1-yl)carbamate] showed an IC50 (Homo sapiens, Jurkat, 72 h) of 9.1 nM.

The molecule `CN(C)CCOc1cccc(-c2ccc3c(c2)CC(C)(C)C3NC(=O)O[C@@H]2CN3CCC2CC3)c1` (stereo partly drawn) [Example 139, (S)-quinuclidin-3-yl (5-(3-(2-(dimethylamino)ethoxy)phenyl)-2,2-dimethyl-2,3-dihydro-1H-inden-1-yl)carbamate] yielded an IC50 (Homo sapiens, Jurkat, 72 h) of 74.4 nM. The same measure, in the same setting: the value for `CC1(C)Cc2cc(-c3cccc4ccncc34)ccc2C1NC(=O)O[C@@H]1CN2CCC1CC2` (stereo partly drawn) [Example 140, (S)-quinuclidin-3-yl (5-(isoquinolin-8-yl)-2,2-dimethyl-2,3-dihydro-1H-inden-1-yl)carbamate] was 10.5 nM; that for `CC1(C)Cc2cc(-c3cccc4cnccc34)ccc2C1NC(=O)O[C@@H]1CN2CCC1CC2` (stereo partly drawn) [Example 141, (S)-quinuclidin-3-yl (5-(isoquinolin-5-yl)-2,2-dimethyl-2,3-dihydro-1H-inden-1-yl)carbamate] was 39.9 nM; that for `CC1(C)Cc2cc(-c3cncc4ccccc34)ccc2C1NC(=O)O[C@@H]1CN2CCC1CC2` (stereo partly drawn) [Example 142, (S)-quinuclidin-3-yl (5-(isoquinolin-4-yl)-2,2-dimethyl-2,3-dihydro-1H-inden-1-yl)carbamate] was 20.5 nM. As for `CC1(C)Cc2cc(-c3cnc4ccccc4c3)ccc2C1NC(=O)O[C@@H]1CN2CCC1CC2` (stereo partly drawn) [Example 143, (S)-quinuclidin-3-yl (2,2-dimethyl-5-(quinolin-3-yl)-2,3-dihydro-1H-inden-1-yl)carbamate], the half-inhibitory concentration (IC50) (read-out: IC50) was found to be 25.2 nM. For the setting “Homo sapiens, Jurkat, 72 h”, `CC(C)Oc1ccc(-c2ccc3c(c2)CC(C)(C)C3NC(=O)O[C@@H]2CN3CCC2CC3)cc1` (stereo partly drawn) [Example 144, (S)-quinuclidin-3-yl (5-(4-isopropoxyphenyl)-2,2-dimethyl-2,3-dihydro-1H-inden-1-yl)carbamate] showed an IC50 of 6.2 nM. `CC(C)Oc1ccccc1-c1ccc2c(c1)CC(C)(C)C2NC(=O)O[C@@H]1CN2CCC1CC2` (stereo partly drawn) [Example 145, (S)-quinuclidin-3-yl (5-(2-isopropoxyphenyl)-2,2-dimethyl-2,3-dihydro-1H-inden-1-yl)carbamate] returned an IC50 (Homo sapiens, Jurkat, 72 h) of 23 nM. With `CC(C)(C)c1ccc(-c2ccc3c(c2)CC(C)(C)C3NC(=O)O[C@@H]2CN3CCC2CC3)cc1` (stereo partly drawn) [Example 146, (S)-quinuclidin-3-yl (5-(4-(tert-butyl)phenyl)-2,2-dimethyl-2,3-dihydro-1H-inden-1-yl)carbamate], the IC50 (Homo sapiens, Jurkat, 72 h) was 14.1 nM. Molecule `CCc1ccc(-c2ccc3c(c2)CC(C)(C)C3NC(=O)O[C@@H]2CN3CCC2CC3)cc1` (stereo partly drawn) [Example 147, (S)-quinuclidin-3-yl (5-(4-ethylphenyl)-2,2-dimethyl-2,3-dihydro-1H-inden-1-yl)carbamate] displayed an IC50 (Homo sapiens, Jurkat, 72 h) of 14 nM. Regarding `CC1(C)Cc2cc(-c3ccc(N4CCOCC4)cc3)ccc2C1NC(=O)O[C@@H]1CN2CCC1CC2` (stereo partly drawn) [Example 148, (S)-quinuclidin-3-yl (2,2-dimethyl-5-(4-morpholinophenyl)-2,3-dihydro-1H-inden-1-yl)carbamate], 30 nM corresponded to half-maximal inhibition (Homo sapiens, Jurkat, 72 h) (IC50). For `COCc1ccc(-c2ccc3c(c2)CC(C)(C)C3NC(=O)O[C@@H]2CN3CCC2CC3)cc1` (stereo partly drawn) [Example 149, (S)-quinuclidin-3-yl (5-(4-(methoxymethyl)phenyl)-2,2-dimethyl-2,3-dihydro-1H-inden-1-yl)carbamate], half-maximal inhibition (Homo sapiens, Jurkat, 72 h) (IC50) was put at 27.6 nM. As for `CC1(C)Cc2cc(-c3ccc(OCC(F)F)cc3)ccc2C1NC(=O)O[C@@H]1CN2CCC1CC2` (stereo partly drawn) [Example 150, (S)-quinuclidin-3-yl (5-(4-(2,2-difluoroethoxy)phenyl)-2,2-dimethyl-2,3-dihydro-1H-inden-1-yl)carbamate], where the note is “Homo sapiens, Jurkat, 72 h”, the IC50 stood at 6.8 nM. In the case of `Cc1cc(-c2ccc3c(c2)CC(C)(C)C3NC(=O)O[C@@H]2CN3CCC2CC3)ccc1N1CCOCC1` (stereo partly drawn) [Example 151, (S)-quinuclidin-3-yl (2,2-dimethyl-5-(3-methyl-4-morpholinophenyl)-2,3-dihydro-1H-inden-1-yl)carbamate], the IC50 (Homo sapiens, Jurkat, 72 h) stood at 37.9 nM. On the same count and under the same terms, the value for `CC1(C)Cc2cc(-c3ccc(N4CCOCC4)c(F)c3)ccc2C1NC(=O)O[C@@H]1CN2CCC1CC2` (stereo partly drawn) [Example 152, (S)-quinuclidin-3-yl (5-(3-fluoro-4-morpholinophenyl)-2,2-dimethyl-2,3-dihydro-1H-inden-1-yl)carbamate] was 32.5 nM; that for `CC1(C)Cc2cc(-c3ccc(N4CCOCC4)c(Cl)c3)ccc2C1NC(=O)O[C@@H]1CN2CCC1CC2` (stereo partly drawn) [Example 153, (S)-quinuclidin-3-yl (5-(3-chloro-4-morpholinophenyl)-2,2-dimethyl-2,3-dihydro-1H-inden-1-yl)carbamate] was 41.4 nM. Molecule `CC1(C)Cc2cc(-c3ccc4c(c3)OCCCO4)ccc2C1NC(=O)O[C@@H]1CN2CCC1CC2` (stereo partly drawn) [Example 154, (S)-quinuclidin-3-yl (5-(3,4-dihydro-2H-benzo[b][1,4]dioxepin-7-yl)-2,2-dimethyl-2,3-dihydro-1H-inden-1-yl)carbamate] displayed an IC50 (Homo sapiens, Jurkat, 72 h) of 27.4 nM.

The record behind these values is US12522602B2, “Derivatives having 2,3-dihydro-1H-indene or 2,3-dihydrobenzofuran moiety or pharmaceutically acceptable salt thereof and pharmaceutical compositions comprising the same” (YUHAN CORPORATION, priority 2019, dated 2026).
